Data from patent US20240376090A1, “ISOXAZOLE DERIVATIVES AS MODULATORS OF THE 5-HT2A SEROTONIN RECEPTOR USEFUL FOR THE TREATMENT OF DISORDERED RELATED THERETO” (Arena Pharmaceuticals, Inc., priority 2020, published 2024).

Biological target: 5-HT2A receptor (Homo sapiens (Human), UniProt P28223)
Test: Radioligand binding assay ([3H]5-HT competition), 5-HT2A
Settings: [3H]5-HT radioligand, membranes of HEK293 cells expressing recombinant 5-HT2A; Ki from IC50 by Cheng-Prusoff; read-out: 5-HT2A serotonin binding Ki value

5-HT2A receptor, sequence (P28223 whole entry): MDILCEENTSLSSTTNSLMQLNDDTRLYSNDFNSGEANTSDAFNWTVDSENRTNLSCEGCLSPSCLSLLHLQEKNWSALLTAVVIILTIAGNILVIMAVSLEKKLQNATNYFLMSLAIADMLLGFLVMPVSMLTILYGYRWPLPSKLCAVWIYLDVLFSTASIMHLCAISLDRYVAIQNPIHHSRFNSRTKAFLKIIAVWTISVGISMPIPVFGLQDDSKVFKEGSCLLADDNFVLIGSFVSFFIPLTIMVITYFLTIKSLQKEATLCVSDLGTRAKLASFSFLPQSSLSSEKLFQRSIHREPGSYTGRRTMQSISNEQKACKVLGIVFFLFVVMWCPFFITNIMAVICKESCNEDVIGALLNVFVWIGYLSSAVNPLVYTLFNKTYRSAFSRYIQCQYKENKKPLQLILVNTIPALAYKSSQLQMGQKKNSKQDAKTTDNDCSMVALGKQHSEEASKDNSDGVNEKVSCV

| SMILES | Ki |
| --- | --- |
| Cc1nc(C)c(C(=O)Nc2ccc(OC[C@H]3CCCCN3)c(-c3c(C)noc3C)c2)s1 [Compound 194, (R)—N-(3-(3,5-dimethylisoxazol-4-yl)-4-(piperidin-2-ylmethoxy)phenyl)-2,4-dimethylthiazole-5-carboxamide] | 32.2 nM |
| Cc1cnoc1C(=O)Nc1ccc(OC[C@H]2CCCCN2)c(-c2c(C)noc2C)c1 [Compound 195, (R)—N-(3-(3,5-dimethylisoxazol-4-yl)-4-(piperidin-2-ylmethoxy)phenyl)-4-methylisoxazole-5-carboxamide] | 15.2 nM |
| Cc1noc(C)c1-c1cc(NC(=O)C(C)(C)F)ccc1OC[C@H]1CCCCN1 [Compound 199, N-[3-(3,5-dimethylisoxazol-4-yl)-4-[[(2R)-2-piperidyl]methoxy]phenyl]-2-fluoro-2-methyl-propanamide] | 35.6 nM |
| Cc1noc(C)c1-c1cc(NC(=O)C2(CF)CC2)ccc1OC[C@H]1CCCCN1 [Compound 200, (R)—N-(3-(3,5-dimethylisoxazol-4-yl)-4-(piperidin-2-ylmethoxy)phenyl)-1-(fluoromethyl)cyclopropane-1-carboxamide] | 9.08 nM |
| Cc1noc(C)c1-c1cc(NC(=O)C[C@@H]2CCOC2)ccc1OC[C@H]1CCCCN1 [Compound 201, N-(3-(3,5-dimethylisoxazol-4-yl)-4-(((R)-piperidin-2-yl)methoxy)phenyl)-2-((S)-tetrahydrofuran-3-yl)acetamide] | 11.9 nM |
| Cc1noc(C)c1-c1cc(NC(=O)C2CC23CCOCC3)ccc1OC[C@H]1CCCCN1 (stereo partly drawn) [Compound 203, N-(3-(3,5-dimethylisoxazol-4-yl)-4-(((R)-piperidin-2-yl)methoxy)phenyl)-6-oxaspiro[2.5]octane-1-carboxamide] | 27.8 nM |
| COCC1(C(=O)Nc2ccc(OC[C@H]3CCCCN3)c(-c3c(C)noc3C)c2)CC1 [Compound 204, (R)—N-(3-(3,5-dimethylisoxazol-4-yl)-4-(piperidin-2-ylmethoxy)phenyl)-1-(methoxymethyl)cyclopropane-1-carboxamide] | 25 nM |
| COC1(CC(=O)Nc2ccc(OC[C@H]3CCCCN3)c(-c3c(C)noc3C)c2)CCC1 [Compound 205, (R)—N-(3-(3,5-dimethylisoxazol-4-yl)-4-(piperidin-2-ylmethoxy)phenyl)-2-(1-methoxycyclobutyl)acetamide] | 105 nM |
| Cc1noc(C)c1-c1cc(NC(=O)C(F)c2ccccc2)ccc1OC[C@H]1CCCCN1 (stereo partly drawn) [Compound 206, N-(3-(3,5-dimethylisoxazol-4-yl)-4-(((R)-piperidin-2-yl)methoxy)phenyl)-2-fluoro-2-phenylacetamide] | 3.4 nM |
| Cc1nc(C)c(C(=O)Nc2ccc(OC[C@H]3CCCCN3)c(-c3c(C)noc3C)c2)o1 [Compound 207, (R)—N-(3-(3,5-dimethylisoxazol-4-yl)-4-(piperidin-2-ylmethoxy)phenyl)-2,4-dimethyloxazole-5-carboxamide] | 235 nM |
| Cc1cnn(C)c1C(=O)Nc1ccc(OC[C@H]2CCCCN2)c(-c2c(C)noc2C)c1 [Compound 208, (R)—N-(3-(3,5-dimethylisoxazol-4-yl)-4-(piperidin-2-ylmethoxy)phenyl)-1,4-dimethyl-1H-pyrazole-5-carboxamide] | 9.66 nM |
| CCc1cc(C(=O)Nc2ccc(OC[C@H]3CCCCN3)c(-c3c(C)noc3C)c2)n(C)n1 [Compound 209, (R)—N-(3-(3,5-dimethylisoxazol-4-yl)-4-(piperidin-2-ylmethoxy)phenyl)-3-ethyl-1-methyl-1H-pyrazole-5-carboxamide] | 36.3 nM |
| Cc1nc(C(=O)Nc2ccc(OC[C@H]3CCCCN3)c(-c3c(C)noc3C)c2)c(C)s1 [Compound 210, (R)—N-(3-(3,5-dimethylisoxazol-4-yl)-4-(piperidin-2-ylmethoxy)phenyl)-2,5-dimethylthiazole-4-carboxamide] | 86.3 nM |
| Cc1noc(C)c1-c1cc(NC(=O)c2cnn(C)c2C)ccc1OC[C@H]1CCCCN1 [Compound 211, (R)—N-(3-(3,5-dimethylisoxazol-4-yl)-4-(piperidin-2-ylmethoxy)phenyl)-1,5-dimethyl-1H-pyrazole-4-carboxamide] | 40.9 nM |
| Cc1noc(C)c1-c1cc(NC(=O)c2ncnn2C)ccc1OC[C@H]1CCCCN1 [Compound 212, (R)—N-(3-(3,5-dimethylisoxazol-4-yl)-4-(piperidin-2-ylmethoxy)phenyl)-1-methyl-1H-1,2,4-triazole-5-carboxamide] | 38.6 nM |
| Cc1noc(C)c1-c1cc(NC(=O)Cc2nccs2)ccc1OC[C@H]1CCCCN1 [Compound 213, (R)—N-(3-(3,5-dimethylisoxazol-4-yl)-4-(piperidin-2-ylmethoxy)phenyl)-2-(thiazol-2-yl)acetamide] | 4.73 nM |
| Cc1cnsc1C(=O)Nc1ccc(OC[C@H]2CCCCN2)c(-c2c(C)noc2C)c1 [Compound 214, (R)—N-(3-(3,5-dimethylisoxazol-4-yl)-4-(piperidin-2-ylmethoxy)phenyl)-4-methylisothiazole-5-carboxamide] | 3.05 nM |
| Cc1nnsc1C(=O)Nc1ccc(OC[C@H]2CCCCN2)c(-c2c(C)noc2C)c1 [Compound 215, (R)—N-(3-(3,5-dimethylisoxazol-4-yl)-4-(piperidin-2-ylmethoxy)phenyl)-4-methyl-1,2,3-thiadiazole-5-carboxamide] | 18.4 nM |
| Cc1nc(C(=O)Nc2ccc(OC[C@H]3CCCCN3)c(-c3c(C)noc3C)c2)c(C)o1 [Compound 216, (R)—N-(3-(3,5-dimethylisoxazol-4-yl)-4-(piperidin-2-ylmethoxy)phenyl)-2,5-dimethyloxazole-4-carboxamide] | 298 nM |
| COc1ccc(CC(=O)Nc2ccc(OC[C@H]3CCCCN3)c(-c3c(C)noc3C)c2)cc1 [Compound 224, (R)—N-(3-(3,5-dimethylisoxazol-4-yl)-4-(piperidin-2-ylmethoxy)phenyl)-2-(4-methoxyphenyl)acetamide] | 1.53 nM |
| Cc1noc(C)c1-c1cc(NC(=O)Cc2ccc(F)cn2)ccc1OC[C@H]1CCCCN1 [Compound 227, (R)—N-(3-(3,5-dimethylisoxazol-4-yl)-4-(piperidin-2-ylmethoxy)phenyl)-2-(5-fluoropyridin-2-yl)acetamide] | 91.6 nM |
| COC1(CC(=O)Nc2ccc(OC[C@H]3CCCCN3)c(-c3c(C)noc3C)c2)CC1 [Compound 228, (R)—N-(3-(3,5-dimethylisoxazol-4-yl)-4-(piperidin-2-ylmethoxy)phenyl)-2-(1-methoxycyclopropyl)acetamide] | 66.4 nM |
| Cc1nc(C(C)C)sc1C(=O)Nc1ccc(OC[C@H]2CCCCN2)c(-c2c(C)noc2C)c1 [Compound 231, (R)—N-(3-(3,5-dimethylisoxazol-4-yl)-4-(piperidin-2-ylmethoxy)phenyl)-2-isopropyl-4-methylthiazole-5-carboxamide] | 16.8 nM |
| Cc1noc(C)c1-c1cc(NC(=O)C2(F)CC2)ccc1O[C@@H]1CCCNC1 [Compound 235, (R)—N-(3-(3,5-dimethylisoxazol-4-yl)-4-(piperidin-3-yloxy)phenyl)-1-fluorocyclopropane-1-carboxamide] | 45.2 nM |
| Cc1noc(C)c1-c1cc(N(C)C(=O)C2CC2)ccc1OC[C@H]1CCCCN1 [Compound 236, N-[3-(3,5-dimethylisoxazol-4-yl)-4-[[(2R)-2-piperidyl]methoxy]phenyl]-N-methyl-cyclopropanecarboxamide] | 63900 nM |
